According to patent US12479840B2, “HMG-CoA reductase degradation inducing compound” (Uppthera, priority 2020, dated 2025):

molecular target: T1, HMG-CoA reductase (Homo sapiens, UniProt P04035); experiment: HMG-CoA reductase (HMGCR) degradation in HepG2 cells by western blotting; assay type: cell-based; details: treated for 18 hours, ratio of HMG-CoA reductase to GAPDH, read-out: DC50
T1 construct: endogenous in cells; host or cells: HepG2 (Korea Cell Line Bank)
T1 sequence (P04035 1-888): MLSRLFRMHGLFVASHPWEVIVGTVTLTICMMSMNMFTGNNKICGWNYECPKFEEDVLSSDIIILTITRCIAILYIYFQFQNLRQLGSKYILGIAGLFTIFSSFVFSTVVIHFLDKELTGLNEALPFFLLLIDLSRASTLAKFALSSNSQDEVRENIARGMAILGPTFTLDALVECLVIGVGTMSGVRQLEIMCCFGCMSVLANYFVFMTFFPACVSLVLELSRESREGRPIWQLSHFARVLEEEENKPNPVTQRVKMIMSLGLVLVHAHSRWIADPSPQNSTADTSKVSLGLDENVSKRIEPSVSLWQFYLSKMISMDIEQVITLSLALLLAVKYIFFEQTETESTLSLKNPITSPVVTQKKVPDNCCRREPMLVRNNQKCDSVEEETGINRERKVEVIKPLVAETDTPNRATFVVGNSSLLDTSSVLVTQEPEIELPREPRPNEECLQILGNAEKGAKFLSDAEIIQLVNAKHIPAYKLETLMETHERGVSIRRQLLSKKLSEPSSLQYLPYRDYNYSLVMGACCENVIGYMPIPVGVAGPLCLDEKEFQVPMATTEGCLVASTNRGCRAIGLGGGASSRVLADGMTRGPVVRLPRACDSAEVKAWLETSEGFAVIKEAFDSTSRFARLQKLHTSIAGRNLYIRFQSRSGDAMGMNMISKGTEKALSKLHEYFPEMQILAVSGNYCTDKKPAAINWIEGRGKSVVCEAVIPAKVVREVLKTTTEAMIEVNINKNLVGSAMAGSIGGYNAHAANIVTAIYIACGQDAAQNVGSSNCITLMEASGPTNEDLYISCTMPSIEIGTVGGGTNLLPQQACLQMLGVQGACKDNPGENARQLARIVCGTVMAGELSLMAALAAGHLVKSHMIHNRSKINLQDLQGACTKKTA
Procedure, shortened: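 Western blot read-out: HMGCR protein probed (1:500, 16 hours at 4° C) alongside GAPDH loading control on 15 μg BCA-normalised RIPA lysates. Lysates came from HepG2 cells (P105–P110) exposed for 18 hours to a 10-point, three-fold series starting at 3 μM.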

Compound | DC50
CN[C@@H](C)C(=O)N[C@H](C(=O)N1CCC[C@@H]1c1nc(C(=O)c2cccc(OCCOCCOCCNC(=O)O[C@H]3C[C@@H](C)C=C4C=C[C@H](C)[C@H](CC[C@@H]5C[C@@H](O[Si](C)(C)C(C)(C)C)CC(=O)O5)[C@H]43)c2)cs1)C1CCCCC1 [Compound 35, (1S,3R,7S,8S,8aR)-8-(2-((2R,4R)-4-((tert-butyldimethylsilyl)oxy)-6-oxotetrahydro-2H-pyran-2-yl)ethyl)-3,7-dimethyl-1,2,3,7,8,8a-hexahydronaphthalen-1-yl (2-(2-(2-(3-(2-((R)-1-((S)-2-cyclohexyl-2-((S)-2-(methylamino)propanamido)acetyl)pyrrolidin-2-yl)thiazole-4-carbonyl)phenoxy)ethoxy)ethoxy)ethyl)carbamate] | > 500 nM
C[C@H]1C=C2C=C[C@H](C)[C@H](CC[C@@H]3C[C@@H](O[Si](C)(C)C(C)(C)C)CC(=O)O3)[C@H]2[C@@H](OC(=O)NCCCCCCCCCCNc2cccc3c2C(=O)N(C2CCC(=O)NC2=O)C3=O)C1 (stereo partly drawn) [Compound 56, (1S,3R,7S,8S,8aR)-8-(2-((2R,4R)-4-((tert-butyldimethylsilyl)oxy)-6-oxotetrahydro-2H-pyran-2-yl)ethyl)-3,7-dimethyl-1,2,3,7,8,8a-hexahydronaphthalen-1-yl (10-((2-(2,6-dioxopiperidin-3-yl)-1,3-dioxoisoindolin-4-yl)amino)decyl)carbamate] | < 50 nM
C[C@H]1C=C2C=C[C@H](C)[C@H](CC[C@@H]3C[C@@H](O[Si](C)(C)C(C)(C)C)CC(=O)O3)[C@H]2[C@@H](OC(=O)NCCC(=O)NCCOCCNc2cccc3c2C(=O)N(C2CCC(=O)NC2=O)C3=O)C1 (stereo partly drawn) [Compound 100, (1S,3R,7S,8S,8aR)-8-(2-((2R,4R)-4-((tert-butyldimethylsilyl)oxy)-6-oxotetrahydro-2H-pyran-2-yl)ethyl)-3,7-dimethyl-1,2,3,7,8,8a-hexahydronaphthalen-1-yl (3-((2-(2-((2-(2,6-dioxopiperidin-3-yl)-1,3-dioxoisoindolin-4-yl)amino)ethoxy)ethyl)amino)-3-oxopropyl)carbamate] | < 50 nM
C[C@H]1C=C2C=C[C@H](C)[C@H](CC[C@@H]3C[C@@H](O[Si](C)(C)C(C)(C)C)CC(=O)O3)[C@H]2[C@@H](OC(=O)N2CCC(CCOCCNc3cccc4c3C(=O)N(C3CCC(=O)NC3=O)C4=O)CC2)C1 (stereo partly drawn) [Compound 84, (1S,3R,7S,8S,8aR)-8-(2-((2R,4R)-4-((tert-butyldimethylsilyl)oxy)-6-oxotetrahydro-2H-pyran-2-yl)ethyl)-3,7-dimethyl-1,2,3,7,8,8a-hexahydronaphthalen-1-yl4-(2-(2-((2-(2,6-dioxopiperidin-3-yl)-1,3-dioxoisoindolin-4-yl)amino)ethoxy)ethyl)piperidine-1-carboxylate] | < 50 nM

Next, values leading:

DC50 | Compound
> 500 nM | CN[C@@H](C)C(=O)N[C@H](C(=O)N1CCC[C@@H]1c1nc(C(=O)c2cccc(OCCOCCOCCNC(=O)O[C@H]3C[C@@H](C)C=C4C=C[C@H](C)[C@H](CC[C@@H]5C[C@@H](O)CC(=O)O5)[C@H]43)c2)cs1)C1CCCCC1 [Compound 34, (1S,3R,7S,8S,8aR)-8-(2-((2R,4R)-4-hydroxy-6-oxotetrahydro-2H-pyran-2-yl)ethyl)-3,7-dimethyl-1,2,3,7,8,8a-hexahydronaphthalen-1-yl (2-(2-(2-(3-(2-((R)-1-((S)-2-cyclohexyl-2-((S)-2-(methylamino)propanamido)acetyl)pyrrolidin-2-yl)thiazole-4-carbonyl)phenoxy)ethoxy)ethoxy)ethyl)carbamate]
< 50 nM | C[C@H]1C=C2C=C[C@H](C)[C@H](CC[C@@H]3C[C@@H](O)CC(=O)O3)[C@H]2[C@@H](OC(=O)C(C)(C)CCC(=O)NCCOCCOCCOCCOCCNc2cccc3c2C(=O)N(C2CCC(=O)NC2=O)C3=O)C1 (stereo partly drawn) [Compound 4, (1S,3R,7S,8S,8aR)-8-(2-((2R,4R)-4-hydroxy-6-oxotetrahydro-2H-pyran-2-yl)ethyl)-3,7-dimethyl-1,2,3,7,8,8a-hexahydronaphthalen-1-yl 1-((2-(2,6-dioxopiperidin-3-yl)-1,3-dioxoisoindolin-4-yl)amino)-19,19-dimethyl-16-oxo-3,6,9,12-tetraoxa-15-azaicosan-20-oate]
50 to 500 nM | C[C@H]1C=C2C=C[C@H](C)[C@H](CC[C@@H]3C[C@@H](O)CC(=O)O3)[C@H]2[C@@H](OC(=O)NCCCCCCN2CCC(Nc3cccc4c3C(=O)N(C3CCC(=O)NC3=O)C4=O)CC2)C1 (stereo partly drawn) [Compound 127, (1S,3R,7S,8S,8aR)-8-(2-((2R,4R)-4-hydroxy-6-oxotetrahydro-2H-pyran-2-yl)ethyl)-3,7-dimethyl-1,2,3,7,8,8a-hexahydronaphthalen-1-yl (6-(4-((2-(2,6-dioxo piperidin-3-yl)-1,3-dioxoisoindolin-4-yl)amino)piperidin-1-yl)hexyl)carbamate]
< 50 nM | C[C@H]1C=C2C=C[C@H](C)[C@H](CC[C@@H]3C[C@@H](O)CC(=O)O3)[C@H]2[C@@H](OC(=O)NCCCOC2CCN(C(=O)COc3cccc4c3C(=O)N(C3CCC(=O)NC3=O)C4=O)CC2)C1 (stereo partly drawn) [Compound 135, (1S,3R,7S,8S,8aR)-8-(2-((2R,4R)-4-hydroxy-6-oxotetrahydro-2H-pyran-2-yl)ethyl)-3,7-dimethyl-1,2,3,7,8,8a-hexahydronaphthalen-1-yl (3-((1-(2-((2-(2,6-dioxopiperidin-3-yl)-1,3-dioxoisoindolin-4-yl)oxy)acetyl)piperidin-4-yl)oxy)propyl)carbamate]
< 50 nM | Cc1ncsc1-c1ccc(CNC(=O)[C@@H]2C[C@@H](O)CN2C(=O)[C@@H](NC(=O)CCCCCCCNC(=O)O[C@H]2C[C@@H](C)C=C3C=C[C@H](C)[C@H](CC[C@@H]4C[C@@H](O)CC(=O)O4)[C@H]32)C(C)(C)C)cc1 [Compound 158, (1S,3R,7S,8S,8aR)-8-(2-((2R,4R)-4-hydroxy-6-oxotetrahydro-2H-pyran-2-yl)ethyl)-3,7-dimethyl-1,2,3,7,8,8a-hexahydronaphthalen-1-yl (8-(((S)-1-((2S,4R)-4-hydroxy-2-((4-(4-methylthiazol-5-yl)benzyl)carbamoyl)pyrrolidin-1-yl)-3,3-dimethyl-1-oxobutan-2-yl)amino)-8-oxooctyl)carbamate]
